The subject of one experiment is GDNF. Description: GDNF immunofluorescence on meninges cytospins from EO-LM2-engrafted CSF1R-GFP mice. In kind it is in vivo, mouse. The settings on record: meninges cytospin at endpoint, veh. vs. PLX5622-treated EO-LM2 mice; P=0.0232. The source says: The mouse meninges were isolated as described by Louveau et al (Louveau, A., Filiano, A. J. & Kipnis, J. Meningeal whole mount preparation and characterization of neural cells by flow cytometry. Current protocols in immunology 121, e50-e50 (2018)). Briefly, the skull cap was removed and placed in a cold PBS bath under a dissecting microscope. Using fine forceps, the meninges were carefully peeled off the skull. Any remaining meninges on the brain surface were carefully removed with fine forceps while limiting the removal of residual brain parenchyma. The meninges were digested for 45 min at 37° C. in digest buffer (1×HBSS with calcium and magnesium (Corning), 5% FBS, 10 mM HEPES, DNase (Sigma Aldrich, 20 U mL^−1), Liberase DL (Sigma Aldrich, 10 mg mL^−1), Liberase TL (Sigma Aldrich, 10 mg mL^−1)) and lightly shaken every 10 min. The digested solution was then passed through a 70-μm cell strainer and a rubber syringe pump was used to gently push through any undigested tissue. […]
Glass 96-well plates were coated with 100 μL of poly-D-lysine (Sigma Aldrich, 0.1 mg mL^−1) in water at room temperature for 1 h and then washed three times with sterile PBS and allowed to air dry for 15 min in a tissue culture hood. […] ImageJ was used to quantify raw integrated pixel density per cell.

For experiment [1], the system named is CSF1R+ cells. Description: Depletion of CSF1R+ cells in CSF1R-GFP reporter mice fed PLX5622 chow (whole mount and intravital imaging). The experiment is classed as in vivo, mouse. The conditions noted are these: 1200 mg kg^−1 in AIN-76A rodent chow for three days; brain parenchyma and LM. The protocol:
FIG. 16A-E: Meningeal macrophages co-localize with EO-LM2 cells and are depleted with the CSF1R inhibitor, PLX5622. a, Confocal intravital microscopy (IVM) of the brain leptomeninges (LM) showing tdTomato+EO-LM2 cells co-localizing with CSF1R+ myeloid cells in the perivascular space of LM vessels (white). Scale bar=[…]. b, Representative whole mount (brain parenchyma) and IVM (LM) images of CSF1R-GFP reporter mice treated with either control or PLX5622 (1200 mg kg^−1) formulated AIN-76A rodent chow for three days. CSF1R+ cells=green. Vessels=white. c, Quantification of the number of CSF1R+ cells per imaging field of view of mice in (b). Three 10× field of view images acquired per mouse. Unpaired, two-sided Student's t-test. n=3 mice per group. ***P=0.0001. ****P<0.0001. s.e.m. d, Dosing Strategy for experiment in FIG. 11k,l. e, Dosing strategy for experiment in FIG. 11m,n.
PLX5622 (ChemGood) was formulated into AIN-76A rodent chow at 1200 mg kg^−1 by Research Diets Inc. Formulated chow was irradiated prior to administration. CSF1R-GFP (MacGreen) mice were given AIN-76A±PLX5622 for three days prior to engraftment and continued to feed on formulated or control chow for the duration of the study. […]
(§1) Intravital and whole mount images were imported into ImageJ for quantification. […] Tissue bordered were then traced and the mean tdT signal was measured over total tissue area.

Experiment [2] has as its system EO-LM2 cells. Description: Time to LMD progression (HLP score of 0.5) in EO-LM2-engrafted mice, vehicle vs. PLX5622. In kind it is in vivo, mouse. The conditions noted are these: PLX5622 chow 1200 mg kg^−1 from three days prior to engraftment, P=0.0002. The source says:
(§2) FIG. 11A-Q: Meningeal macrophages promote BCC survival through GDNF/NCAM signaling. a, Volcano plot of differentially expressed genes in EO-LM2 vs. −P cells. b, Ncam1 mean fluorescence intensity (MFI) by flow cytometry. n=3 biological replicates. Two-sided, unpaired Student's t-test. c, Representative intravital microscopy (IVM) and quantification of EO-LM2 vs. −NCAM1KO cells in the LM of mice on day 3 post-engraftment. n=3 mice. Two-sided, unpaired Student's t-test. d, Hindlimb paralysis (HLP) incidence and representative brain section H&E of paired EO-LM2 vs. −NCAM1KO mice euthanized when either reached a clinical endpoint (EP). n=5 mice. […] Arrows=CSFIR+ cells (green). n=3 mice; n=18-43 cells quantified/mouse. […] Arrowheads=tdT+1833 cells. i, Flow cytometry quantification of GDNF expression in cells isolated from meninges of EO-LM2 mice. n=3 biological replicates. […] Two-sided, unpaired Student's t-test. m, Representative 3D IVM images of EO-LM2 cells (red, arrowheads) co-localizing with CSF1R+ cells (green) surrounding LM vessels (white) in veh. vs. PLX5622-treated mice on day 3 or 10 post-engraftment. n, Quantification of EO-LM2 and CSF1R co-localizing (co-loc.) or non-co-localizing (no-coloc.) cells in the LM of mice in (m). n−3 mice. […]

For experiment [3], the system named is CSF1R+ cells. The conditions noted are these: systemic (non-CNS) populations; cited from earlier work.
In experiment [4] the test system is EO-LM2 cells. Description: Intravital microscopy of EO-LM2 cells in the LM of vehicle vs. PLX5622-treated mice. The experiment is classed as in vivo, mouse. The method, then: PLX5622 (ChemGood) was formulated into AIN-76A rodent chow at 1200 mg kg^−1 by Research Diets Inc. Formulated chow was irradiated prior to administration. CSF1R-GFP (MacGreen) mice were given AIN-76A±PLX5622 for three days prior to engraftment and continued to feed on formulated or control chow for the duration of the study.
Mice were anaesthetized using isoflurane and the cortical bone was exposed following a sagittal incision in the scalp. The head of the mouse was secured using a stereotactic apparatus. A micromotor high-speed drill (Stoelting) with a carbide 0.75-mm drill bit (Stoelting) was used to thin the skull immediately to the left of the sagittal suture and centered between the coronal suture and the lambdoid suture. The skull-thinned region was circular and approximately 1 mm in diameter and the thinning continued until the meningeal vessels were visible under a dissecting microscope and the remaining bone was about 50 μm thin. PBS was used to clean the surgical site and dissipate heat every 15 sec. High-resolution images of the leptomeninges were obtained through the skull thinned window using a Leica SP8 confocal and multiphoton microscope with a 25× water immersion lens. […]
as §1

Another experiment relates to 1833 cells. Briefly: GDNF glucose starvation assay, 1833 cells. The experiment is classed as cell-based, human. The settings on record: glucose free media+1% FBS, GDNF 100 ng mL^−1, 48 h, P=0.0203 vs. vehicle/isotype. The method, then:
(§3) 1×10^5 1833 or EO-LM2 cells were seeded in glucose free or complete media+1% FBS in a 12-well plate. The cells were treated with recombinant human/mouse GDNF (PeproTech, 100 ng mL^−1) or vehicle (0.1% BSA in water) and anti-CD49f neutralizing antibody (Invitrogen, 2.5 μg mL^−1) or isotype control. The cells were incubated at 37° C. and 5% CO2 for 24 h (EO-LM2) or 48 h (1833) and then trypsinized and counted with a hemacytometer. The number of live cells in the glucose deprived conditions were then divided by the number of cells in the glucose complete condition to determine the percent of cells alive after glucose deprivation.

The subject of experiment [5] is EO-LM2 cells. Briefly: Intracerebroventricular (ICV) GDNF rescue experiment in tumored, CSF1R-depleted mice. In kind it is in vivo, mouse. The settings on record: intraventricular GDNF vs. veh. ICV in PLX5622-treated tumored mice; P=0.0002.
From the text: as §2

Experiment [6] deals with EO-LM2 cells. Briefly: GDNF glucose starvation assay, EO-LM2 cells. The experiment is classed as cell-based, mouse. The conditions noted are these: glucose free media+1% FBS, GDNF 100 ng mL^−1, 24 h, P=0.0120 vs. vehicle/isotype. The method, then:
as §3

Regarding `COc1ncc(F)cc1CNc1ccc(Cc2c[nH]c3ncc(C)cc23)c(F)n1` [PLX5622], in the experiment on GDNF, the “LM cells expressing GDNF” value is on record as “dramatic decrease”. The “depletion of CSF1R+ cells from the CNS” value in the experiment on CSF1R+ cells [1] is on record as “dramatically depletes”. Besides, the “time to LMD progression (time to HLP score of 0.5)” value in the experiment with EO-LM2 cells [2] is given as “substantially prolonged”. In addition, in the experiment on CSF1R+ cells [3], the “effects on systemic CSF1R+ populations” value is given as “modest effects”. The “initial BCC invasion of the LM” value in the experiment on EO-LM2 cells [4] (day 3 post-engraftment, veh. vs. PLX5622) is “did not affect”. Besides, the “subsequent BCC expansion within the LM” value with EO-LM2 cells [4] (day 10 post-engraftment, veh. vs. PLX5622, P<0.0001) is listed as “did prevent”.

B1: Recombinant GDNF: recombinant human/mouse glial cell line-derived neurotrophic factor (PeproTech) (protein, UniProt P39905 78-211, looked up)
Glial cell line-derived …: SPDKQMAVLPRRERNRQAAAANPENSRGKGRRGQRGKNRGCVLTAIHLNVTDLGLGYETKEELIFRYCSGSCDAAETTYDKILKNLSRNRRLVSDKVGQACCRPIAFDDDLSFLDDNLVYHILRKHSAKRCGCI
As to B1, the “protection from cell death in low glucose conditions (percent live cells after glucose deprivation)” value with 1833 cells and with EO-LM2 cells [6] was “marked protection from cell death” each time. In the experiment on EO-LM2 cells [5], the “LMD progression (time to HLP score of 0.5)” value is reported as “accelerated LMD progression”.

The values are drawn from US20250189527A1, “COMPOSITIONS AND METHODS FOR DETECTING, PREDICTING RISK OF DEVELOPING, AND TREATING LEPTOMENINGEAL DISEASE” (Duke University, priority 2022, published 2025).
